Assay results from PMC11219871, “Epigenetic-based differentiation therapy for Acute Myeloid Leukemia” (Nature Communications, 2024).
“And” between values parts separate entries of the source, which are not always exact repeats. Equal values may be shown once.

Experiments:
[1] = test system: UT-7; test: Differentiation assay, CD11b / annexin-V flow cytometry; type: cell-based; conditions: UT7 cell line; replicates 1-3 (Figure 2A)
Description: (§1) Next, the cells were washed twice with phosphate-buffered saline (PBS) and resuspended in 1X Binding Buffer at a concentration of 1 × 10^6 cells/mL. An 8-µL aliquot of APC-CD11b (BD Pharmingen, Franklin Lakes, NJ, USA) and 1 µL of FITC annexin-V (AV) (BD Pharmingen, Franklin Lakes, NJ, USA) antibodies were added and incubated for 15 min at room temperature in the dark. Finally, after the addition of 400 µL of 1X Binding Buffer to each tube, samples were collected on a BD FACSCanto flow cytometer (Becton Dickinson, San Jose, CA, USA) and analyzed using FlowJo software.

[2] = test system: KASUMI-1; test: as above; type: cell-based; conditions: KASUMI-1 cell line; replicates 1-3 (Figure 2A);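 also: daily treatment at a GI50-based fraction of each compound's GI50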
Description: as §1

[3] = test system: HEL; test: as above; type: cell-based; conditions: HEL cell line; replicates 1-3 (Figure 2A)
Description: as §1

[4] = test system: OCI-AML2; test: as above; type: cell-based; conditions: OCI-AML-2 cell line; replicates 1-3 (Figure 2A)
Description: as §1

[5] = test system: MONO-MAC-6; test: as above; type: cell-based; conditions: MONOMAC-6 cell line; replicates 1-3 (Figure 2A)
Description: as §1

[6] = test system: TF-1; test: as above; type: cell-based; conditions: TF-1 cell line; replicates 1-3 (Figure 2A);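 also: daily treatment at a GI50-based fraction of each compound's GI50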
Description: as §1

[7] = test system: THP-1; test: as above; type: cell-based; conditions: THP-1 cell line; replicates 1-3 (Figure 2A)
Description: as §1

[8] = test system: OCI-AML3; test: as above; type: cell-based; conditions: OCI-AML-3 cell line; replicates 1-3 (Figure 2A)
Description: as §1

[9] = test system: ML-2; test: Acetylome analysis (Acetyl-K enrichment, LC-MS/MS); type: cell-based, human
Description: Cellular pellets were lysed for 15 min at 95 °C in 4% SDS, 100 mM Hepes/NaOH pH 8.0, containing 5 mM sodium butyrate and 5 mM Nicotinamide. After cooling down, lysates were incubated at 25 °C with 10 units of DNAse (Benzonase, Merk) and sonicated for 15 min in a Bioruptor for DNA shearing. Protein concentration was determined using microBCA, using BSA as standard. Samples were digested using on-bead protein aggregation capture (PAC) with ReSyn Biosciences MagReSyn® Hydoxyl microparticles (ratio Protein/Beads 1:5) in an automated King Fisher instrument (Thermo). Proteins were digested for 16 h at 37 C with LysC/Trypsin mix at a protein: enzyme ratio of 1:100 in 50 mM TEAB pH 8.0 (Trypsin Sequence grade, Sigma; LysC, Wako). The resulting peptides were speed-vac dried and dissolved in 100 µL of 200 mM HEPES pH 8.5.
Peptides (500 µg) were labeled with Thermo Scientific TMTpro 18plex™ Isobaric reagents for 1 h at 25 C. Reaction was quenched by adding 5% hydroxylamine for 15 min. Samples were pooled at a 1:1 ratio based on the total peptide amount, determined by comparing overall signal intensities on a regular LC-MS/MS run. The final mixture was desalted using a 500 mg Sep-Pak C18t cartridge (Waters) and dried prior to high pH reverse phase HPLC pre-fractionation.
Labeled peptides were fractionated offline through a high pH reverse phase chromatography using an Ultimate 3000 HPLC system equipped with a sample collector. Briefly, peptides were dissolved in 1200 µL of Buffer A (10 mM NH4OH) and loaded onto a XBridge BEH130 C18 column (3.5 µm, 250 mm length and 3.5 mm ID, Waters). Buffer B was composed of 10 mM NH4OH in 90% CH3CN. The following gradient was used at a flow rate of 500 µL/min: 0-50 min 0-25% B, 50-56 min 25-60% B, 56-57 min 60-90% B. One-minute fractions (500 µL) from […] were collected and neutralized with 10% formic acid. Based on the UV absorbance at 280 nm, 95% of the volume of 40 fractions was pooled in 5 fractions for Acetyl-Lysine enrichment. The 5% of these fractions was kept for proteome analysis. Pooled fractions were snap-frozen and lyophilized.
Lyophilized peptides (1.5 mg) from each pool were immuno-affinity purified with the PTMScan HS Acetyl-Lysine Motif (Ac−K) kit (Cell Signaling Technology). For each pool, three consecutive immuno-purifications (IPs) were performed using the manufacturer’s protocol in an automated King Fisher instrument (Thermo). Elution of purified peptides was performed in two consecutive steps of 50 μl of 0.15% TFA. Samples were desalted with C18 stage tips and eluates were vacuum dried and resuspended in 0.1% formic acid for subsequent analysis by LC−MS/MS.
LC-MS/MS was done by coupling an UltiMate 3000 RSLCnano LC system to an Orbitrap Exploris 480 mass spectrometer (Thermo Fisher Scientific). Samples were loaded into a trap column (Acclaim™ PepMap™ 100 C18 LC Columns 5 µm, 20 mm length) for 3 min at a flow rate of 10 µL/min in 0.1% FA. Peptides were then transferred to an EASY-Spray PepMap RSLC C18 column (Thermo) (2 µm, 75 µm x 50 cm) operated at 45 °C and separated using a 90 min effective gradient (buffer A: 0.1% FA; buffer B: 100% ACN, 0.1% FA) at a flow rate of 250 nL/min. The gradient used was, from 4% to 6% of buffer B the first 2 min, from 6% to 33% B the next 58 min, plus 10 additional minutes at 98% B.
The mass spectrometer was operated in a data-dependent mode, with an automatic switch between MS and MS/MS scans using a top 15 method. (Intensity threshold ≥ 1e4, dynamic exclusion of 20 sec and excluding charges unassigned, +1 and ≥ +7). MS spectra were acquired from 350 to 1500 m/z with a resolution of 60,000 FMHW (200 m/z). Ion peptides were isolated using a 0.7 Th window and fragmented using higher-energy collisional dissociation (HCD) with a normalized collision energy NCE of 36. MS/MS spectra were acquired with a fixed first mass of 120 m/z and a resolution of 45,000 FMHW (200 m/z). […]

[10] = ML-2, first (superseded) acetylome experiment, peer review file
[11] = distribution of acetylated sites in the acetylated proteins (Fig 4D)

## COc1cc2nc(-c3cc(C)oc3C)cc(NCC3CCN(c4ncc(C(=O)NO)cn4)CC3)c2cc1OC [CM-1758, 2-[4-[[[2-(2,5-dimethyl-3-furyl)-6,7-dimethoxy-4-quinolyl]amino]methyl] -1-piperidyl]pyrimidine-5-carbohydroxamic acid]
[1]
  CD11b (%): 21.8% and 25.6% and 23.1%
[2]
  CD11b (%): 24.2% and 19.4% and 12.5%
[3]
  CD11b (%): 14.82% and 10.2% and 20.4%
[4]
  CD11b (%): 39.01% and 39.3% and 37.1%
[5]
  CD11b (%): 61.3% and 69.1% and 60.1%
[6]
  CD11b (%): 72.3% (2×) and 76.2%
[7]
  CD11b (%): 90.5% and 96.2% and 93.2%
[8]
  CD11b (%): 51.4% and 49.5% and 45.2%
[9]
  Number of proteins with >5 Acetyl-K sites per protein: 14
[9]; Fig 4G
  Acetyl-K sites regulated, Number, Histone proteins: 55
  Acetyl-K sites regulated, Number, Non-histone proteins: 681
  Acetyl-K sites regulated, Percentages, Histone proteins: 7.5
  Acetyl-K sites regulated, Percentages, Non-histone proteins: 92.5
[9]; ML-2 (Fig 4C)
  Acetyl-K sites: Down-regulated, %: 10.9%
  Acetyl-K sites: Down-regulated, Number: 395
  Acetyl-K sites: Non-regulated, %: 79.7%
  Acetyl-K sites: Non-regulated, Number: 2882
  Acetyl-K sites: Quantified (total number): 3618
  Acetyl-K sites: Regulated, %: 20.3%
  Acetyl-K sites: Regulated, Number: 736
  Acetyl-K sites: Up-regulated, %: 9.4%
  Acetyl-K sites: Up-regulated, Number: 341
[9]; ML-2, 25% GI50, 12 h
  fraction of regulated acetylation sites upregulated: 46.3%
[9]; ML-2, 25% GI50, 12 h, Fig. 4C
  Acetyl-K sites, Down-regulated: 395
  Acetyl-K sites, Up-regulated: 341
[9]; ML-2, 25% GI50, 12 h, Fig. 4G
  regulated Acetyl-K sites in Histone proteins: 55
  regulated Acetyl-K sites in Non-histone proteins: 681
[9]; ML-2, 25% GI50, 12 h, of 3618 quantified
  percentage of Acetyl-K sites regulated: 20.3%
[9]; [10]
  acetyl K-sites regulated specifically by the compound: 80
  fraction of regulated acetylation sites upregulated: 61.2%
[9]; [11]
  Number of proteins with 1 Acetyl-K site per protein: 381
  Number of proteins with 2 Acetyl-K sites per protein: 73
  Number of proteins with 3 Acetyl-K sites per protein: 31
  Number of proteins with 4 Acetyl-K sites per protein: 6
